Data reported in publication PMC4303209, “A novel phosphatidylinositol 3-kinase (PI3K) inhibitor directs a potent FOXO-dependent, p53-independent cell cycle arrest phenotype characterized by the differential induction of a subset of FOXO-regulated genes” (Breast Cancer Research : BCR, 2014).

Tested on: MCF-7 breast cancer cells
Experiment: Microarray gene expression analysis (Agilent whole human genome 4 x 44K; compound vs DMSO, LIMMA log2 fold change)
Assay type: cell-based
Details: cell cycle genes

Compound: Cn1ncc2c(N3CCOCC3)nc(-c3cccc(O)c3)nc21 [ETP-45658]
- TUBB3 log2FC (Gene 10381): -0.638
- ANAPC10 log2FC (Gene 10393): 0.516
- NDRG1 log2FC (Gene 10397): 1.084
- GNB2L1 log2FC (Gene 10399): -0.052
- PRMT5 log2FC (Gene 10419): -0.043
- MAD2L2 log2FC (Gene 10459): -0.088
- TACC3 log2FC (Gene 10460): -0.430
- CREB3 log2FC (Gene 10488): -0.118
- MYBBP1A log2FC (Gene 10514): -0.538
- CIB1 log2FC (Gene 10519): -0.090
- SSSCA1 log2FC (Gene 10534): -0.330
- DCTN2 log2FC (Gene 10540): 0.043
- SMC2 log2FC (Gene 10592): 0.719
- ERN2 log2FC (Gene 10595): -0.829
- USP16 log2FC (Gene 10600): 0.971
- HEXIM1 log2FC (Gene 10614): -0.354
- SPAG5 log2FC (Gene 10615): 0.309
- STAMBP log2FC (Gene 10617): 0.425
- TXNIP log2FC (Gene 10628): 2.131
- PDPN log2FC (Gene 10630): -0.069
- RGS14 log2FC (Gene 10636): 0.556
- CTCF log2FC (Gene 10664): -0.082
- CGRRF1 log2FC (Gene 10668): 0.871
- CGREF1 log2FC (Gene 10669): -0.152
- USP39 log2FC (Gene 10713): 0.041
- NUDC log2FC (Gene 10726): -0.412
- PLK4 log2FC (Gene 10733): 0.611
- STAG3 log2FC (Gene 10734): 0.527
- STAG2 log2FC (Gene 10735): 1.297
- NES log2FC (Gene 10763): -0.458
- PLK2 log2FC (Gene 10769): -0.887
- NEK6 log2FC (Gene 10783): -0.620
- SDCCAG8 log2FC (Gene 10806): 0.654
- TUBGCP2 log2FC (Gene 10844): -0.131
- LILRB1 log2FC (Gene 10859): -0.164
- USP19 log2FC (Gene 10869): 0.174
- BLCAP log2FC (Gene 10904): -0.662
- TXNL4A log2FC (Gene 10907): -0.510
- SUGT1 log2FC (Gene 10910): 0.410
- GADD45G log2FC (Gene 10912): -0.067
- EHMT2 log2FC (Gene 10919): 0.089
- BTG3 log2FC (Gene 10950): -0.035
- MAPRE2 log2FC (Gene 10982): -0.284
- KIF2C log2FC (Gene 11004): 0.489
- TLK2 log2FC (Gene 11011): 0.607
- RAB35 log2FC (Gene 11021): -0.457
- TDRKH log2FC (Gene 11022): 0.089
- PIM2 log2FC (Gene 11040): -0.863
- UBE2C log2FC (Gene 11065): -0.393
- TRIOBP log2FC (Gene 11078): 0.398
- NUPL2 log2FC (Gene 11097): 0.144
- KATNA1 log2FC (Gene 11104): 0.716
- PRDM4 log2FC (Gene 11108): 0.462
- CIT log2FC (Gene 11113): 0.376
- ZWINT log2FC (Gene 11130): -0.088
- CDC37 log2FC (Gene 11140): -0.282
- LZTS1 log2FC (Gene 11178): -0.979
- WDR6 log2FC (Gene 11180): -0.468
- RASSF1 log2FC (Gene 11186): 1.482
- CEP250 log2FC (Gene 11190): -0.206
- PMF1 log2FC (Gene 11243): -0.207
- DCTN3 log2FC (Gene 11258): 0.235
- TUSC2 log2FC (Gene 11334): -0.766
- OIP5 log2FC (Gene 11339): 0.202
- MAPRE1 log2FC (Gene 22919): -0.363
- MAPRE3 log2FC (Gene 22924): 0.034
- TRIM32 log2FC (Gene 22954): -0.374
- TPX2 log2FC (Gene 22974): 0.049
- AZI1 log2FC (Gene 22994): 0.520
- CEP152 log2FC (Gene 22995): 0.685
- USP33 log2FC (Gene 23032): 1.045
- WAPAL log2FC (Gene 23063): 0.789
- TRIM35 log2FC (Gene 23087): 0.473
- CLASP2 log2FC (Gene 23122): 0.610
- POGZ log2FC (Gene 23126): 0.396
- PHF8 log2FC (Gene 23133): -0.483
- SMC5 log2FC (Gene 23137): -0.109
- FBXL7 log2FC (Gene 23194): -0.171
